In publication PMC5011342, “A high throughput drug screening assay to identify compounds that promote oligodendrocyte differentiation using acutely dissociated and purified oligodendrocyte precursor cells” (BMC Research Notes, 2016):
Read-outs that look alike come from different tables or passages of the source.

Assays:
expanded OPCs = assay: cells; details: for viability at 0.1 µM / viability at 1 µM / viability at 10 µM: Rattus norvegicus, 72 h
Method in brief: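 Toxicity screen: compounds added at 0.1, 1 and 10 µM to PDGF-AA-expanded OPCs in 96-well plates, 3-day incubation at 37 °C, 10% CO2, then alamarBlue 1:10 for 4 h with fluorescence readout. Results set screening doses of 10/2, 2/0.4 or 0.4/0.08 µM.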

[1] = test system: acutely dissociated and purified rat OPCs; assay: Acute OL differentiation assay (MBP expression/cell, immunofluorescent image quantification); type: cell-based; details: sheet "All OLga data"
Method in brief: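 This acute differentiation assay used purified rat OPCs from postnatal day 6–7 pups, seeded into PDL/laminin-coated 96-well plates in differentiation medium lacking PDGF and FGF. Compounds were applied in quadruplicate after a 1–2 h preincubation at 37 °C, 10 % CO2, with 0.1 % DMSO negative and 40 ng/ml T3 positive controls in eight wells. After fixation on DIV4, anti-MBP immunofluorescence images yielded MBP expression/cell.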

[2] = read-out: 0.1 µM (% DMSO), alamarBlue viability, NCC library compound at 0.1 µM, sheet "All Tox data"
[3] = read-out: 1 µM (% DMSO), alamarBlue viability, NCC library compound at 1 µM, sheet "All Tox data"
[4] = read-out: 10 µM (% DMSO), alamarBlue viability, NCC library compound at 10 µM, sheet "All Tox data"
[5] = Rattus norvegicus, 0.4 uM test compound, relative to quetiapine, read-out: OL differentiation, 0.4 uM (% Quet)
[6] = read-out: 0.1 µM (% DMSO), alamarBlue viability of expanded OPCs, compound at 0.1 µM, sheet All Tox data
[7] = read-out: 1 µM (% DMSO), alamarBlue viability of expanded OPCs, compound at 1 µM, sheet All Tox data
[8] = read-out: 10 µM (% DMSO), alamarBlue viability of expanded OPCs, compound at 10 µM, sheet All Tox data
[9] = Rattus norvegicus, 2 uM test compound, relative to quetiapine, read-out: OL differentiation, 2 uM (% Quet)
[10] = Rattus norvegicus, 10 uM test compound, relative to quetiapine, read-out: OL differentiation, 10 uM (% Quet)
[11] = alamarBlue viability of expanded OPCs, compound at 0.1 µM, relative to DMSO control
[12] = alamarBlue viability of expanded OPCs, compound at 1 µM, relative to DMSO control
[13] = alamarBlue viability of expanded OPCs, compound at 10 µM, relative to DMSO control
[14] = Rattus norvegicus, test compound at 2 uM, MBP expression relative to quetiapine, NCC library screen, read-out: 2 uM (% Quet)
[15] = Rattus norvegicus, test compound at 10 uM, MBP expression relative to quetiapine, NCC library screen, read-out: 10 uM (% Quet)
[16] = Rattus norvegicus, test compound at 0.4 uM, NCC library screen, relative to quetiapine, read-out: 0.4 uM (% Quet)
[17] = Rattus norvegicus, test compound at 2 uM, NCC library screen, relative to quetiapine, read-out: 2 uM (% Quet)

Row | Compound | viability at 0.1 µM (expanded OPCs; [2]) [%] | viability at 1 µM (expanded OPCs; [3]) [%] | viability at 10 µM (expanded OPCs; [4]) [%] | viability at 0.1 µM (expanded OPCs; [6]) [%] | viability at 1 µM (expanded OPCs; [7]) [%] | viability at 10 µM (expanded OPCs; [8]) [%] | activation at 2 µM [1, 9] [%] | activation at 10 µM [1, 10] [%] | also measured
1 | [H]/N=C(/NCCCCC)N/N=C/c1c[nH]c2ccc(OC)cc12 [Tegaserod] | 88.5 | 33.1 | 11.5 | – | – | – | – | – | activation at 0.08 µM ([1]; Rattus norvegicus, 0.08 uM test compound, relative to quetiapine, read-out: OL differentiation, 0.08 uM (% Quet)): -15.2%; activation at 0.4 µM [1, 5]: -63.1%
2 | CCCCCCNC(=O)n1cc(F)c(=O)[nH]c1=O [Carmofur] | – | – | – | 90.5 | 76.1 | 14.6 | -84.8 | – | activation at 0.4 µM [1, 5]: -28.7%
3 | Cc1ccsc1C(=CCCN1CCC[C@@H](C(=O)O)C1)c1sccc1C [Tiagabine] | – | – | – | 99.9 | 89.2 | 92.7 | -1.8 | 8.7 | –
4 | COC1=CC(=O)C[C@@H](C)[C@]12Oc1c(Cl)c(OC)cc(OC)c1C2=O [Griseofulvin] | – | – | – | – | – | – | – | – | 0.1 µM (% DMSO) (expanded OPCs; [11]): 95.9 % DMSO; 1 µM (% DMSO) (expanded OPCs; [12]): 93.1 % DMSO; 10 µM (% DMSO) (expanded OPCs; [13]): 66.2 % DMSO; activation at 2 µM [1, 14]: -7.2%; activation at 10 µM [1, 15]: -53.4%
5 | COc1ccccc1N1CCN(CCCNc2cc(=O)n(C)c(=O)n2C)CC1 [Urapidil] | – | – | – | 84.5 | 89.8 | 96.2 | 24.2 | 8.4 | –
6 | CCOC(=O)[C@@]1(CCCCCCOc2ccc(Cl)cc2)CO1 [Etomoxir] | – | – | – | 85.7 | 92.3 | 86.2 | 10.1 | 5.4 | –
7 | CC#C[C@]1(O)CC[C@H]2[C@@H]3CCC4=CC(=O)CCC4=C3[C@@H](c3ccc(N(C)C)cc3)C[C@@]21C [Mifepristone] | 84.5 | 71.3 | 26.4 | – | – | – | – | – | activation at 0.4 µM [1, 16]: -2.7%; activation at 2 µM [1, 17]: -139%
8 | CN1CCc2cc(Cl)c(O)cc2[C@@H](c2ccccc2)C1 [R(+) SCH 23390] | – | – | – | – | – | – | – | – | 0.1 µM (% DMSO) (expanded OPCs; alamarBlue viability, NCC library compound at 0.1 µM, sheet "All Tox data"): 84.2 % DMSO; 1 µM (% DMSO) (expanded OPCs; alamarBlue viability, NCC library compound at 1 µM, sheet "All Tox data"): 78.8 % DMSO; 10 µM (% DMSO) (expanded OPCs; alamarBlue viability, NCC library compound at 10 µM, sheet "All Tox data"): 64.1 % DMSO; 0.4 uM (% Quet) ([1]; test compound at 0.4 uM, NCC library screen, relative to quetiapine): -16.1 % Quet; 2 uM (% Quet) ([1]; test compound at 2 uM, NCC library screen, relative to quetiapine): -24.3 % Quet
9 | O=c1n(CCCN2CCN(c3cccc(Cl)c3)CC2)nc2ccccn12 [Trazodone] | – | – | – | 90.8 | 78.9 | 84.9 | -7.5 | 55 | –
10 | C[C@]12CC[C@H]3[C@@H](CCC4=CC(=O)CC[C@@H]43)[C@@H]1CC[C@@H]2O [Nandrolone] | – | – | – | 94.4 | 98.5 | 96.2 | -5.9 | -26.5 | –
11 | NCc1ccc(S(N)(=O)=O)cc1 [Mafenide] | – | – | – | – | – | – | – | – | 0.1 µM (% DMSO) (expanded OPCs; [11]): 97.9 % DMSO; 1 µM (% DMSO) (expanded OPCs; [12]): 90.1 % DMSO; 10 µM (% DMSO) (expanded OPCs; [13]): 86.7 % DMSO; activation at 2 µM [1, 14]: 28.6%; activation at 10 µM [1, 15]: 10%
12 | OC(CCN1CCCC1)(c1ccccc1)C1CCCCC1 (stereo not shown) [Procyclidine] | 86.1 | 70.8 | 56.9 | – | – | – | – | – | activation at 0.4 µM [1, 16]: 12%; activation at 2 µM [1, 17]: 11.1%
13 | CC(Oc1c(Cl)cccc1Cl)C1=NCCN1 (stereo not shown) [lofexidine] | 88.5 | 96 | 80.6 | – | – | – | – | – | activation at 2 µM [1, 17]: 9.5%; activation at 10 µM ([1]; Rattus norvegicus, test compound at 10 uM, NCC library screen, relative to quetiapine, read-out: 10 uM (% Quet)): 13.1%
14 | O=C(CCCN1CCC(O)(c2ccc(Cl)cc2)CC1)c1ccc(F)cc1 [Haloperidol] | 64 | 69.1 | 45.7 | – | – | – | – | – | activation at 0.4 µM [1, 16]: -22.3%; activation at 2 µM [1, 17]: 4.1%
